Among the data in patent US12398118B2, “Rho-associated protein kinase inhibitor, pharmaceutical composition comprising same, and use thereof” (BEIJING TIDE PHARMACEUTICAL CO., LTD., priority 2018, dated 2025) are IC50 values, retold here.

Where only a bound is given, the exact number is not on record here.

In experiment [1] the target is ROCK2 (Homo sapiens, UniProt O75116). Briefly: ROCK2 kinase IC50, HTRF KinEASE-STK S2 kit. The experiment is classed as biochemical. Conditions: 2 hours at room temperature. Here is the method:
(§1) The kinase IC50 was determined by a commercialized CISBIO kinase detection kit, HTRF KinEASE-STK S2 kit (62ST2PEC). ROCK2 (01-119) employed in the reaction was purchased from Carna Biosciences.
(§2) Before the assay, the following working solutions as needed were formulated with corresponding reagents according to the instruction of the kinase detection kit: 1×kinase buffer, 5×STK-S2 substrate working solution (1.5 μM) and 5×ATP working solution (1.5 μM), 5×ROCK2 kinase working solution, 4×Streptavidin-XL665 working solution, and 4×STK-Ab-Cryptate 2 detection solution. Then the assay was performed according to the following procedure.
(§3) A solution of a compound at a concentration of 10000 nM was prepared with the 1×kinase buffer containing 2.5% DMSO. Gradient dilution of the solution of the compound was performed with the kinase buffer containing DMSO, so as to obtain solutions of a test compound at 9 different concentrations. In addition to wells of test compounds, a positive well (containing all the reagents except the compound) and a negative well (containing all the reagents except the test compound and kinase) were set. Except for the control wells (positive and negative wells), a solution of a test compound (4 μL) was added to each of the reaction wells, and a solution of 2.5% DMSO was added to the control wells. Then the substrate (2 μM, i.e., 2 μL 5×STK-S2 substrate working solution) was added to each of the reaction wells. The 5×ROCK2 kinase working solution (2 μL, containing 1.4 ng ROCK2 kinase) was added to each of the reaction wells except for the negative well, the volume of which was made up with the 1×kinase buffer (2 μL). The 5×ATP working solution (2 μL) was added to each of the reaction wells, and the mixtures were incubated at room temperature for 2 hours. After the kinase reaction was complete, the 4×Streptavidin-XL665 working solution was added to each of the reaction wells, the solutions were mixed, followed by immediate addition of the 4×STK-Ab-Cryptate 2 detection solution (5 μL), and the mixtures were incubated at room temperature for 1 hour. The fluorescence signal was read on ENVISION (Perkinelmer) (excitation wavelength: 320 inn, and emission wavelength: 665 nm and 615 nm). The inhibitory rate in each well was calculated based on the fluorescence intensity value: ER (Emission Ratio)_(fluorescence intensity at 665 nm/fluorescence intensity at 615 nm); inhibitory rate=(ERpositive−ERtest compound)/(ERpositive−ERnegative)*100%. Curves were plotted and fitted to obtain the median inhibitory concentration (IC50) of each teat compound with the PRISM 5.0 software. According to a biological test method similar to the above, the IC50 values of the compounds on ROCK1 were also tested.

Experiment [2] has as its target ROCK1 (Homo sapiens (Human), UniProt Q13464). The experiment is described as follows: ROCK1 kinase IC50, biological test method similar to ROCK2 assay. The class given is biochemical. The method, then:
as §1, §2, §3

Chain of ROCK2 (O75116 whole entry, looked up): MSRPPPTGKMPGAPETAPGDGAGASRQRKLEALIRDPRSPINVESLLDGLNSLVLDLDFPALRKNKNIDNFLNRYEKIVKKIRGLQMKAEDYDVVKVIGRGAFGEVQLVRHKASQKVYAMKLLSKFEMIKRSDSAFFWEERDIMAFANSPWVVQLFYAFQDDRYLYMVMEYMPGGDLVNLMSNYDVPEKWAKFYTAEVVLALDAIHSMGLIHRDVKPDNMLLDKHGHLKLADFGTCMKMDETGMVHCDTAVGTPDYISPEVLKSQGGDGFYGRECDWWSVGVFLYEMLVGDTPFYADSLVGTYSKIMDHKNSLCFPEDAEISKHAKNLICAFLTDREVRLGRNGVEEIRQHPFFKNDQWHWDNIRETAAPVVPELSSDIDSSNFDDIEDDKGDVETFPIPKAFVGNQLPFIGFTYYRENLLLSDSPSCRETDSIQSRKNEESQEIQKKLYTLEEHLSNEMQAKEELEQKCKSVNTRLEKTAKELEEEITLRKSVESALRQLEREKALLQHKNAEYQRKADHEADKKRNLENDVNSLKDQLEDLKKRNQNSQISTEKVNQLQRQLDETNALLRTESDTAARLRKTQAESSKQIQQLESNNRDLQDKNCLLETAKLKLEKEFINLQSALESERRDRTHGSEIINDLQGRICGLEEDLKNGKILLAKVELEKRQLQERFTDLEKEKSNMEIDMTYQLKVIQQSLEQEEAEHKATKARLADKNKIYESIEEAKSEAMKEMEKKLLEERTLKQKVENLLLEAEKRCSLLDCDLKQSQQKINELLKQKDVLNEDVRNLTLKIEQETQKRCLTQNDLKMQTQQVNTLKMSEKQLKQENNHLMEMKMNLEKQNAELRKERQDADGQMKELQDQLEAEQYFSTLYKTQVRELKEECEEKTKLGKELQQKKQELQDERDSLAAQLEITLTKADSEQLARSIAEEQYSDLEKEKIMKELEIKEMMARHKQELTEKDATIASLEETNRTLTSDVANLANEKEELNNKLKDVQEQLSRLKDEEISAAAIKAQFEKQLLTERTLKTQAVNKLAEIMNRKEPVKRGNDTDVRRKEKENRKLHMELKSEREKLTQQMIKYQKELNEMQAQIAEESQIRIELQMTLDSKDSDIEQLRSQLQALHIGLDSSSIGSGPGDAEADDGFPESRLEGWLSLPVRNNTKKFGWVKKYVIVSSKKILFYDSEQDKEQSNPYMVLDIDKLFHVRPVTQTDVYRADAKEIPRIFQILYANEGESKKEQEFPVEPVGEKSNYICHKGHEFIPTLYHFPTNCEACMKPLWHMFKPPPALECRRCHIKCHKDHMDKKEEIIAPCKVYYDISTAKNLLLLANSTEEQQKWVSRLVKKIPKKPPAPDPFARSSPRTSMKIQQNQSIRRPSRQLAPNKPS
Chain of ROCK1 (Q13464 whole entry, species assumed): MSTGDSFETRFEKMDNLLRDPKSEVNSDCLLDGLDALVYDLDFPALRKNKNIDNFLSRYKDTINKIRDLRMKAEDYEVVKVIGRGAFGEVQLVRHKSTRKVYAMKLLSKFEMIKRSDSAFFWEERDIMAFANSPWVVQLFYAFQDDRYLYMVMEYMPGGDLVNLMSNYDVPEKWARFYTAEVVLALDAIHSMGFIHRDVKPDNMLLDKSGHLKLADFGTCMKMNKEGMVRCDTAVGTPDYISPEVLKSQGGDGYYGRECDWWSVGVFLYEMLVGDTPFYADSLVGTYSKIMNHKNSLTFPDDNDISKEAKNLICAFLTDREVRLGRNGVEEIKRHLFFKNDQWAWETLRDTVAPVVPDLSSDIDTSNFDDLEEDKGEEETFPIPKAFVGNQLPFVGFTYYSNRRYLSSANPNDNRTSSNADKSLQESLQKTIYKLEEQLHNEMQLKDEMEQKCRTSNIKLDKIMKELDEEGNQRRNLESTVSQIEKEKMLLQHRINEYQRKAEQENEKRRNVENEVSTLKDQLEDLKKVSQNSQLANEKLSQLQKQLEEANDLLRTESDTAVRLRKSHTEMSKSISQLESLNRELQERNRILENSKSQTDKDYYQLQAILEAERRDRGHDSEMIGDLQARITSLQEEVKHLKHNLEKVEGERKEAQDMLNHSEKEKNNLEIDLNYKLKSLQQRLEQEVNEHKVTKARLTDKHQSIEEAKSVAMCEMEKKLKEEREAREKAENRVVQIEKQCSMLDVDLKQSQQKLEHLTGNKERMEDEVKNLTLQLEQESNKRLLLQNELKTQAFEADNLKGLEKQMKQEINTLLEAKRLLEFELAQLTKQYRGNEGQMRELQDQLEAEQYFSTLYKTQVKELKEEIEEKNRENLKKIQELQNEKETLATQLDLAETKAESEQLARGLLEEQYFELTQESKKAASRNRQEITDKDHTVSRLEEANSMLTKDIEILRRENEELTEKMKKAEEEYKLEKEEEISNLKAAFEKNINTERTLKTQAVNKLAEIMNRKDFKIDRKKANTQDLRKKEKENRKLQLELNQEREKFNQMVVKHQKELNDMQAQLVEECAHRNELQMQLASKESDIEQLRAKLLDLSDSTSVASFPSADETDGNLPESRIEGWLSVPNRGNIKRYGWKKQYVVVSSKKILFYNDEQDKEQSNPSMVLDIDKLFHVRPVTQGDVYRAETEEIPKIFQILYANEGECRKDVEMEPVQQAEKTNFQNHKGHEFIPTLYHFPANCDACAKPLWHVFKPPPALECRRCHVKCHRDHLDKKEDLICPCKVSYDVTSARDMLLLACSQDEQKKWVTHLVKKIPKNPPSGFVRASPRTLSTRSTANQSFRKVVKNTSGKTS

With `O=C(c1ccc2c(c1)CN(c1nccc(Nc3ccc4c(=O)[nH]ccc4c3)n1)C2)N1CC(F)(F)C1` [C1, 6-((2-(5-(3,3-difluoroazetidine-1-carbonyl)isoindolin-2-yl)pyrimidin-4-yl)amino)isoquinolin-1(2H)-one], the results for the IC50 in experiment [1] and in experiment [2] were 129 nM and above 10000 nM, respectively.
For the compound `O=C1NCc2cc(Nc3nc(-c4ccc5c(c4)CN(C(=O)C4CC(F)(F)C4)C5)ncc3F)ccc21` [C3, 5-((2-(2-(3,3-difluoroo-cyclobutane-1-carbonyl)isoindolin-5-yl)-5-fluoro-pyrimidin-4-yl)amino) isoindolin-1-one], the IC50 (commonly the concentration that inhibits the measured activity by half) in experiment [1] is 287 nM; in experiment [2], above 10000 nM.
`O=C(C1CC(F)(F)C1)N1Cc2ccc(-c3ncc(F)c(Nc4ccc5c(=O)[nH]cc(Cl)c5c4)n3)cc2C1` [C5, 4-chloro-6-((2-(2-(3,3-difluoroo-cyclobutane-1-carbonyl)isoindolin-5-yl)-5-fluoro-pyrimidin-4-yl)amino) isoquinolin-1(2H)-one]: the IC50 in experiment [1] is 13 nM; in experiment [2], above 10000 nM.
For `O=C(C1CC(F)(F)C1)N1Cc2ccc(-c3ncc(F)c(Nc4ccc5c(=O)[nH]cnc5c4)n3)cc2C1` [C6, 7-((2-(2-(3,3-difluoroo-cyclobutane-1-carbonyl)isoindolin-5-yl)-5-fluoro-pyrimidin-4-yl)amino) quinazolin-4(3H)-one], the half-maximal inhibitory concentration (IC50) in experiment [1] was 76 nM; in experiment [2] it was above 10000 nM.
`O=C(C1CC(F)(F)C1)N1Cc2ccc(-c3ncc(F)c(Nc4ccc5c(=O)[nH]ccc5c4)n3)cc2C1` [C8, 6-((2-(2-(3,3-difluoroo-cyclobutane-l-carbonyl)isoindolin-5-yl)-5-fluoro-pyrimidin-4-yl)amino) isoquinolin-1(2H)-one]: the IC50 is 16 nM in experiment [1] and above 10000 nM in experiment [2].
In the same order, the values of `O=C(c1cc2ccc(-c3ncc(F)c(Nc4ccc5c(=O)[nH]ccc5c4)n3)cc2[nH]1)N1CC(F)(F)C1` [C9, 6-((2-(2-(3,3-difluoroazetidine-1-carbonyl)-1H-indol-6-yl)-5-fluoropyrimidin-4-yl)amino)isoquinolin-1(2H)-one] are 4 nM and above 10000 nM.
Regarding `O=C(OC1CC(F)(F)C1)N1Cc2ccc(-c3ncc(F)c(Nc4ccc5c(=O)[nH]ccc5c4)n3)cc2C1` [C10, 3,3-difluorocyclobutyl 5-(5-fluoro-4-((1-oxo-1,2-dihydroisoquinolin-6-yl)amino)pyrimidin-2-yl)isoindoline-2-carboxylate], the IC50 in experiment [1] is 11 nM; in experiment [2], above 10000 nM.
Turning to `CC(C)(C)OC(=O)N1Cc2ccc(-c3ncc(F)c(Nc4ccc5c(=O)[nH]ccc5c4)n3)cc2C1` [C11, tert-butyl 5-(5-fluoro-4-((1-oxo-1,2-dihydro-isoquinolin-6-yl)amino)pyrimiclin-2-yl) isoindoline-2-carboxylate], the values for the 50% inhibitory concentration (IC50) in experiment [1] and in experiment [2] were 34 nM and above 10000 nM, respectively.
For `O=C(C1CC(F)(F)C1)N1Cc2ccc(-c3ncc(F)c(Nc4ccc5c(=O)[nH]ncc5c4)n3)cc2C1` [C12, 6-((2-(2-(3,3-difluoroo-cyclobutane-1-carbonyl)isoindolin-5-yl)-5-fluoro-pyrimidin-4-yl)amino) phthalazin-1(2H)-one], the IC50 in experiment [1] is 17 nM; in experiment [2], above 10000 nM.
Regarding `O=C(C1CCC(F)(F)CC1)N1Cc2ccc(-c3ncc(F)c(Nc4ccc5c(=O)[nH]ccc5c4)n3)cc2C1` [C13, 6-((2-(2-(4,4-difluorocyclohexane-1-carbonyl)isoindolin-5-yl)-5-fluoropyrimidin-4-yl)amino)isoquinolin-1(2H)-one], the values for the concentration for half-maximal inhibition (IC50) in experiment [1] and in experiment [2] were 38 nM and above 10000 nM, respectively.
As to `O=C1NCCc2cc(Nc3nc(-c4ccc5c(c4)CN(C(=O)OC4CC(F)(F)C4)C5)ncc3F)ccc21` [C14, 3,3-difluoro-cyclobutyl 5-(5-fluoro-4-((1-oxo-1,2,3,4-tetrahydro-isoquinolin-6-yl)amino)pyrimidin-2-yl) isoindoline-2-carboxylate], the half-maximal inhibitory concentration (IC50) in experiment [1] was 28 nM; in experiment [2] it was above 10000 nM.
Take `O=C(C1CC(F)(F)C1)N1CCc2cc(-c3ncc(F)c(Nc4ccc5c(=O)[nH]ccc5c4)n3)ccc21` [C15, 6-((2-(1-(3,3-difluoroo-cyclobutane-1-carbonyl)indolin-5-yl)-5-fluoro-pyrimidin-4-yl)amino) isoquinolin-1-(2H)-one]: the IC50 in experiment [1] is 79 nM; in experiment [2], above 10000 nM.
As for `O=C(OC1CC(F)(F)C1)N1CCc2cc(-c3ncc(F)c(Nc4ccc5c(=O)[nH]ccc5c4)n3)ccc21` [C16], the IC50 in experiment [1] is 19 nM; in experiment [2], above 10000 nM.
In the same order, the values of `CC(C)(C)OC(=O)N1CCc2cc(-c3ncc(F)c(Nc4ccc5c(=O)[nH]ccc5c4)n3)ccc21` [C17] are 421 nM and above 10000 nM.
In the same order, the values of `CC(OC(=O)N1Cc2ccc(-c3ncc(F)c(Nc4ccc5c(=O)[nH]ccc5c4)n3)cc2C1)C(F)(F)F` (stereo not shown) [C18, 1,1,1-trifluoro-propan-2-yl 5-(5-fluoro-4-((1-oxo-1,2-dihydro-isoquinolin-6-yl)amino)pyrimidin-2-yl) isoindoline-2-carboxylate] are 31 nM and above 10000 nM.
As for `O=C(OC1CCOC1)N1Cc2ccc(-c3ncc(F)c(Nc4ccc5c(=O)[nH]ccc5c4)n3)cc2C1` (stereo not shown) [C19, tetra-hydrofuran-3-yl 5-(5-fluoro-4-((1-oxo-1,2-dihydro-isoquinolin-6-yl)amino)pyrimidin-2-yl) isoindoline-2-carboxylate], the concentration for half-maximal inhibition (IC50) in experiment [1] was 25 nM; in experiment [2], above 10000 nM.
Consider `COCn1c(C(=O)N2CC(F)(F)C2)cc2ccc(-c3ncc(F)c(Nc4ccc5c(=O)[nH]ccc5c4)n3)cc21` [C20, 6-((2-(2-(3,3-difluoro-azetidine-1-carbonyl)-1-(methoxy-methyl)-1H-indol-6-yl)-5-fluoro-pyrimidin-4-yl)amino) isoquinolin-1(2H)-one], for which the values for the half-inhibitory concentration (IC50) in experiment [1] and in experiment [2] were 238 nM and above 10000 nM, respectively.
For `COCn1c(C(=O)N2CC(F)(F)C2)cc2ccc(-c3nccc(Nc4ccc5c(=O)[nH]ccc5c4)n3)cc21` [C21, 6-((2-(2-(3,3-difluoro-azetidine-1-carbonyl)-1-(methoxy-methyl)-1H-indol-6-yl)pyrimidin-4-yl)amino) isoquinolin-1(2H)-one], the IC50 is 108 nM in experiment [1] and above 10000 nM in experiment [2].
Take `COCn1c(C(=O)N2CC(F)(F)C2)cc2ccc(-c3ncnc(Nc4ccc5c(=O)[nH]ccc5c4)n3)cc21` [C22, 6-((4(2-(3,3-difluoro-azetidine-1-carbonyl)-1-(methoxy-methyl)-1H-indol-6-yl)-1,3,5-triazin-2-yl)amino) isoquinolin-1(2H)-one]: the 50% inhibitory concentration (IC50) in experiment [1] is 130 nM; in experiment [2], above 10000 nM.
Consider `O=C(OC1CC(F)(F)C1)N1CCc2cc(-c3ncc(F)c(Nc4ccc5c(=O)[nH]ccc5c4)n3)ccc2C1` [C23, 3,3-difluoro-cyclobutyl 6-(5-fluoro-4-((1-oxo-1,2-dihydro-isoquinolin-6-yl)amino)pyrimidin-2-yl)-3,4-dihydro-isoquinolin-2(1H)-carboxylate], for which the IC50 in experiment [1] was 173 nM; in experiment [2], above 10000 nM.
Consider `CC(C)(C)OC(=O)N1CCc2cc(-c3ncc(F)c(Nc4ccc5c(=O)[nH]ccc5c4)n3)ccc2C1` [C24, tert-butyl 6-(5-fluoro-4-((1-oxo-1,2-dihydro-isoquinolin-6-yl)amino)pyrimidin-2-yl)-3,4-dihydro-isoquinolin-2(1H)-carboxylate], for which the IC50 is 222 nM in experiment [1] and above 10000 nM in experiment [2].
In the same order, the values of `O=C(OC1CC(F)(F)C1)N1CCc2cc(-c3nccc(Nc4ccc5c(=O)[nH]ccc5c4)n3)ccc2C1` [C25, 3,3-difluoro-cyclobutyl 6-(4-((1-oxo-1,2-dihydro-isoquinolin-6-yl)amino)pyrimidin-2-yl)-3,4-dihydro-isoquinolin-2(1H)-carboxylate] are 45 nM and above 10000 nM.
In the same order, the values of `O=C(OC1CCC1)N1CCc2cc(-c3ncc(F)c(Nc4ccc5c(=O)[nH]ccc5c4)n3)ccc2C1` [C26, cyclobutyl 6-(5-fluoro-4-((1-oxo-1,2-dihydro-isoquinolin-6-yl)amino)pyrimidin-2-yl)-3,4-dihydro-isoquinolin-2(1H)-carboxylate] are 356 nM and above 10000 nM.
